Assay results as given in PubChem BioAssay (NCI).
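The concentration for 50% growth inhibition is given as GI50. TGI: concentration producing complete growth inhibition.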

Key:
Assay in all cases: NCI anticancer screen, dose series, 384-well format
NCI/ADR-RES ovarian = tested on: NCI/ADR-RES ovarian
OVCAR-4 ovarian = tested on: OVCAR-4 ovarian
U251 glioblastoma = tested on: U251 glioblastoma
NCI-H226 lung = tested on: NCI-H226 lung
T-47D breast = tested on: T-47D breast
COLO 205 colon = tested on: COLO 205 colon
BT-549 breast = tested on: BT-549 breast
SF-539 CNS = tested on: SF-539 CNS
OVCAR-8 ovarian = tested on: OVCAR-8 ovarian
SK-MEL-2 melanoma = tested on: SK-MEL-2 melanoma
NCI-H322M lung = tested on: NCI-H322M lung
SF-295 CNS = tested on: SF-295 CNS
786-0 renal = tested on: 786-0 renal

SMILES: CS(=O)(=O)c1ccc(Oc2cc(F)cc(C#N)c2)c2c1[C@H](O)C(F)(F)C2
- GI50 (NCI/ADR-RES ovarian): > 100 µM
- TGI (NCI/ADR-RES ovarian): > 100 µM
- GI50 (OVCAR-4 ovarian): > 100 µM
- TGI (OVCAR-4 ovarian): > 100 µM
- GI50 (U251 glioblastoma): > 100 µM
- TGI (U251 glioblastoma): > 100 µM
- GI50 (NCI-H226 lung): > 100 µM
- TGI (NCI-H226 lung): > 100 µM
- GI50 (T-47D breast): > 100 µM
- TGI (T-47D breast): > 100 µM
- GI50 (COLO 205 colon): > 100 µM
- TGI (COLO 205 colon): > 100 µM
- GI50 (BT-549 breast): > 100 µM
- TGI (BT-549 breast): > 100 µM
- GI50 (SF-539 CNS): > 100 µM
- TGI (SF-539 CNS): > 100 µM
- GI50 (OVCAR-8 ovarian): > 100 µM
- TGI (OVCAR-8 ovarian): > 100 µM
- GI50 (SK-MEL-2 melanoma): > 100 µM
- TGI (SK-MEL-2 melanoma): > 100 µM
- GI50 (NCI-H322M lung): > 100 µM
- TGI (NCI-H322M lung): > 100 µM
- GI50 (SF-295 CNS): > 100 µM
- TGI (SF-295 CNS): > 100 µM
- GI50 (786-0 renal): > 100 µM
- TGI (786-0 renal): > 100 µM

SMILES: CC(C)n1c(=O)n(C)c2cnc3cc(F)c(-c4ccc(OCCCN5CCCCC5)nc4)cc3c21
- GI50 (NCI/ADR-RES ovarian): > 100 µM
- TGI (NCI/ADR-RES ovarian): > 100 µM
- GI50 (OVCAR-4 ovarian): > 100 µM
- TGI (OVCAR-4 ovarian): > 100 µM
- GI50 (U251 glioblastoma): > 70.8 µM
- TGI (U251 glioblastoma): > 100 µM
- GI50 (NCI-H226 lung): 14.3 µM
- TGI (NCI-H226 lung): > 100 µM
- GI50 (T-47D breast): > 48.5 µM
- TGI (T-47D breast): > 100 µM
- GI50 (COLO 205 colon): > 100 µM
- TGI (COLO 205 colon): > 100 µM
- GI50 (BT-549 breast): 9.56 µM
- TGI (BT-549 breast): > 100 µM
- GI50 (SF-539 CNS): > 84.1 µM
- TGI (SF-539 CNS): > 100 µM
- GI50 (OVCAR-8 ovarian): > 43.4 µM
- TGI (OVCAR-8 ovarian): > 100 µM
- GI50 (SK-MEL-2 melanoma): 35.2 µM
- TGI (SK-MEL-2 melanoma): > 70 µM
- GI50 (NCI-H322M lung): > 100 µM
- TGI (NCI-H322M lung): > 100 µM
- GI50 (SF-295 CNS): > 100 µM
- TGI (SF-295 CNS): > 100 µM
- GI50 (786-0 renal): > 77.4 µM
- TGI (786-0 renal): > 100 µM
